The source of these data is paper PMC1458349, “Evaluation of high-dose daptomycin for therapy of experimental Staphylococcus aureus foreign body infection” (BMC Infectious Diseases, 2006).

For data set [1], the system named is methicillin-susceptible S. aureus (MSSA) strain I20. Kind of data set: MIC, standard tube macrodilution (CLSI). As to conditions: Staphylococcus aureus. The class given is cell-based. The protocol:
The methicillin-susceptible S. aureus (MSSA) strain I20 is a previously described clinical isolate from catheter-related sepsis, which is highly virulent in the rat model of chronic S. aureus tissue cage infection. Strain I20 is uniformly susceptible to all antibiotics except penicillin.
The MICs of oxacillin and vancomycin for strain I20 were determined in cation-adjusted Mueller-Hinton broth (CAMHB) containing 20-25 mg/L Ca^2+ and 10-12.5 mg/L Mg^2+ by the standard tube macrodilution method with an average inoculum of 10^6 CFU/mL as described by the Clinical Laboratory Standards Institute (CLSI). For daptomycin MIC, CAMHB was supplemented with additional calcium to a physiological concentration of 50 mg/L Ca^2+ (CSMHB).
Each MIC and MBC determination was performed three times and the modal values are presented. In additional control experiments, MICs and MBCs were performed in CAMHB supplemented with 50% TCF.

The test system is the same in data set [2]. The data set can be described thus: microbe, parasite or virus in culture. The class given is cell-based, Staphylococcus aureus. Here is the method: To screen for the possible carryover effects of each antibiotic during the MBC determinations, 0.1-mL portions were taken from all tubes with no visible growth. These were subcultured, either undiluted or diluted 10-fold in saline, on Mueller-Hinton agar (MHA) for 36 h at 37°C. The MBC was defined as the lowest concentration that killed 99.9% of the original inoculum. Each MIC and MBC determination was performed three times and the modal values are presented. In additional control experiments, MICs and MBCs were performed in CAMHB supplemented with 50% TCF.

In data set [3] the test system is MSSA strain I20. The data set can be described thus: Killing kinetic (time-kill) studies. Format: cell-based, Staphylococcus aureus. As to conditions: 8 mg/L in CAMHB; 10^6 CFU exponential-phase; 37°C; one representative of three experiments. The protocol:
0.1-mL portions containing 10^6 CFU of strain I20 (obtained from exponential-phase cultures) were added to sterile plastic tubes containing 1 mL of either CSMHB containing 8 mg/L of daptomycin, or CAMHB containing 8 mg/L of oxacillin or vancomycin, in a shaking waterbath at 37°C. The number of viable organisms was determined by subculturing 50 μL of 10-fold diluted portions on MHA after 0, 2, 4, 6, and 24 h of incubation. Colonies were enumerated with a laser colony counter (Spiral System) after 48 h of incubation at 37°C. The detection limit was 2 log10 CFU/mL. […] Each killing kinetic experiment was repeated three times and results from one representative experiment are presented.

The test system of data set [4] is MSSA strain I20. The class given is in vivo, Staphylococcus aureus. As to conditions: Wistar rats, i.p. twice daily for 7 days: daptomycin 30 mg/kg, oxacillin 200 mg/kg, vancomycin 50 mg/kg, mean ± SEM, n = 18-19 cages; for average counts in tissue cages at the end of the 7-day therapy: TCF cultured 12 h after last dose; for reduction in bacterial counts in TCF (delta log10 CFU/mL, day 1 to day 8): P < 0.001 vs untreated. The protocol:
All animal studies of the daptomycin no 1-study were performed in 1991. These animal studies followed ethical guidelines of that time period and received legal approval from the Veterinary Office of the State of Geneva. Subcutaneous surgical implantation of four tissue cages per animal was performed as described by using Wistar rats that were anaesthetised with an intraperitoneal (i.p.) injection of a mixture of ketamine (90 mg/kg) and xylazine (5 mg/kg). At 3 weeks post-implantation, TCF was aspirated and checked for sterility. To establish a chronic S. aureus infection, tissue cages were inoculated with 0.1 mL of saline containing 0.2 × 10^6 to 2 × 10^6 CFU of a washed overnight culture of strain I20 in CAMHB. Three weeks later, all tissue cages containing more than 10^5 CFU/mL of TCF were included in the therapeutic protocols.
Rats infected with strain I20 were randomised to receive (by the i.p. route for 7 days) twice-daily regimens of either daptomycin (30 mg/kg), oxacillin (200 mg/kg), or vancomycin (50 mg/kg), or were left untreated. At 12 h after the last injection of antibiotic, quantitative cultures of 10-fold serially diluted TCF were performed on MHA. To optimise the yield of viable bacteria, TCF were briefly sonicated (60 W, 1 min) to disrupt the biofilm and phagocytic cells before the serial dilutions and plating. Plates were incubated for 24-48 h at 37°C. The detection limit was one colony equivalent to 2 log10 CFU/mL of TCF. The differences in CFU counts between day 1 and day 8 were determined and expressed as delta log10CFU/mL. For each treatment group, results were expressed as means ± standard errors of the means (SEM). Comparison of bacterial counts in the different groups was performed by ANOVA and Newman-Keuls multiple comparisons procedures using Microsoft Excel® 2000 software. Data were considered significant when P was < 0.05 by using two-tailed significance levels.

The conditions of data set [5]: rats, cited from earlier work.
Data set [6] can be described thus: Screening of side effects: serum liver, kidney and muscle markers. The class given is in vivo, rat. Here is the method:
To check for potential side effects of the twice-daily 30 mg/kg daptomycin regimen, serum samples of the daptomycin-treated and control rats were collected at day 8 for determination of liver, kidney, and muscle enzyme markers, namely aspartate aminotransferase (ASAT) and alanine aminotransferase (ALAT) activities, serum creatinine, and creatine kinase, respectively, using standard analytical methods.

A short description of data set [7]: in vivo. As to conditions: rat, plasma, ip, 30 mg/kg.
Method: (§1) For each time point, the mean (± SEM) daptomycin levels in plasma from four animals was determined.
The nature of data set [8]: in vivo. As to conditions: Wistar, rat, tissue cage fluid (TCF), ip, 30 mg/kg.
Method: as §1
For data set [9] the following is noted: rats, 30 mg/kg once daily, cited from earlier work.
For data set [10] the following is noted: rat, in vivo, cited from earlier work.
Data set [11] can be described thus: Pharmacokinetic levels in rat plasma. To be noted: 30 mg/kg i.p. twice daily, day 4.
Method: as §1
A short description of data set [12]: Pharmacokinetic levels in rat tissue cage fluid (TCF).
Method: as §1
Where [13] appears, read: Staphylococcus aureus, MSSA, CAMHB, lowest concentration killing 99.9% of inoculum, subculture on MHA 36 h 37°C, modal value of 3, read-out: MBC.
Setting [14] is: twice-daily oxacillin 200 mg/kg or vancomycin 50 mg/kg.

Molecules are shown by their SMILES. In brackets after ≈: the same amount, converted by molar mass. Several values for one entry are separate records, joined by “and”; a condition that tells them apart may be missing. Equal entries are not always repeated. Where two headings read alike, the source gives them in different places.

As to `CN[C@H](CC(C)C)C(=O)N[C@H]1C(=O)N[C@@H](CC(N)=O)C(=O)N[C@H]2C(=O)N[C@H]3C(=O)N[C@H](C(=O)N[C@H](C(=O)O)c4cc(O)cc(O)c4-c4cc3ccc4O)[C@H](O)c3ccc(c(Cl)c3)Oc3cc2cc(c3O[C@@H]2O[C@H](CO)[C@@H](O)[C@H](O)[C@H]2O[C@H]2C[C@](C)(N)[C@H](O)[C@H](C)O2)Oc2ccc(cc2Cl)[C@H]1O` [vancomycin], the MIC in data set [1] is 1 µg/mL (≈ 0.69 µM). Besides, the MBC in data set [2] (setting [13]) was found to be 2 µg/mL (≈ 1.38 µM). In addition, in the data set with MSSA strain I20 [3], the “time after which reduction in viable counts exceeded 3 log10 CFU/mL” value is 4 h. Also, in the data set on MSSA strain I20 [4], the “average counts in tissue cages at the end of the 7-day therapy” value is 5.49 ± 0.21 log10 CFU/mL; the “reduction in bacterial counts in TCF (delta log10 CFU/mL, day 1 to day 8)” value is 0.96 log10 CFU/mL and 0.96 ± 0.24 log10 CFU/mL. Moreover, in data set [5] (setting [14]), the “peak TCF level” value is on record as 12 mg/L and the “trough TCF level” value is reported as 2 mg/L.

As to `Cc1onc(-c2ccccc2)c1C(=O)N[C@@H]1C(=O)N2[C@@H]1SC(C)(C)[C@@H]2C(=O)O` [oxacillin], the MIC in data set [1] (CAMHB (20-25 mg/L Ca2+, 10-12.5 mg/L Mg2+), tube macrodilution, inoculum 10^6 CFU/mL, modal value of 3 determinations, read-out: MIC) was found to be 0.5 µg/mL (≈ 1.25 µM). Besides, the MBC in data set [2] (setting [13]) came to 1 µg/mL (≈ 2.49 µM). Besides, in the data set on MSSA strain I20 [3], the “time after which reduction in viable counts exceeded 3 log10 CFU/mL” value was 4 h. Moreover, in the data set on MSSA strain I20 [4], the “average counts in tissue cages at the end of the 7-day therapy” value is 5.90 ± 0.25 log10 CFU/mL; the “reduction in bacterial counts in TCF (delta log10 CFU/mL, day 1 to day 8)” value was 0.92 log10 CFU/mL and 0.92 ± 0.21 log10 CFU/mL. In addition, the “trough TCF level” value in [5] (setting [14]) is on record as 5.7 mg/L.

On to `CCCCCCCCCC(=O)N[C@@H](Cc1c[nH]c2ccccc12)C(=O)N[C@H](CC(N)=O)C(=O)N[C@@H](CC(=O)O)C(=O)N[C@@H]1C(=O)NCC(=O)N[C@@H](CCCN)C(=O)N[C@@H](CC(=O)O)C(=O)N[C@H](C)C(=O)N[C@@H](CC(=O)O)C(=O)NCC(=O)N[C@H](CO)C(=O)N[C@@H]([C@H](C)CC(=O)O)C(=O)N[C@@H](CC(=O)c2ccccc2N)C(=O)O[C@@H]1C` [daptomycin], for which the MBC in data set [2] (methicillin-susceptible strain I20, 36 h) was 1 µg/mL (≈ 0.617 µM). In addition, the “exterior signs of toxicity” value in [6] (rats receiving twice-daily doses (30 mg/kg)) is reported as “No exterior sign of toxicity”. For the same compound, in data set [6] (rats treated with high-dose daptomycin (30 mg/kg twice daily, 7 days)), the “liver toxicity (overall assessment)” value is recorded as “only mild liver toxicity”. For the same compound, in [6] (rats, 30 mg/kg i.p. twice daily for 7 days, serum at day 8, n = 5, control 41 ± 11), the “ALAT (alanine aminotransferase) activity in serum” value was 46 ± 9 IU/L. Also, the serum creatinine in data set [6] (rats, 30 mg/kg i.p. twice daily for 7 days, serum at day 8, n = 5, control 50 ± 5) came out at 53 ± 5 μM/L. In addition, the “ASAT (aspartate aminotransferase) activity in serum” value in [6] (rats, 30 mg/kg i.p. twice daily for 7 days, serum at day 8, n = 5, control 146 ± 36) is given as 216 ± 24 IU/L. Moreover, the “creatine kinase in serum” value in [6] (rats, 30 mg/kg i.p. twice daily for 7 days, serum at day 8, n = 5, control 1349 ± 820) was found to be 1393 ± 886 IU/L. The same compound yielded a level at 12 h in “in vivo [7]” of 9100 ng/mL. In “in vivo [8]”, the level at 4 day amounted to 21000 ng/mL. Moreover, the “plasma AUC0-24h” value in data set [9] is 558 µg·h/mL; in data set [10] (25 mg/kg), 278 µg·h/mL; in data set [10] (40 mg/kg) it was 605 µg·h/mL; in data set [11] (rats, AUC0-12 by linear trapezoidal rule multiplied by two) it was 1667 µg·h/mL. For the same compound, the peak plasma level in data set [9] (day 4, HPLC) was 141 mg/L. Also, the trough plasma level in data set [9] (day 4, HPLC) is recorded as 0 mg/L. The “plasma level at 12 h” value in [9] (day 4) is 1000 ng/mL. In addition, the “TCF AUC0-24h as percentage of plasma AUC0-24h” value in [5] (30 mg/kg daily regimen (printed as daptomycin no 1-study)) is listed as 35%; in [12] (rats, 30 mg/kg twice-daily regimen (printed as daptomycin no 2-study)), 64%. For the same compound, the “TCF AUC0-24h” value in [5] (30 mg/kg once daily) was 196 µg·h/mL; in data set [12] (rats, 30 mg/kg i.p. twice daily, day 4, AUC0-12 by linear trapezoidal rule multiplied by two) it was 1073 µg·h/mL. Also, the “TCF level at 12 h (intermediate value)” value in [5] (30 mg/kg once daily) is listed as 10.0 mg/L. The “mean peak level in TCF” value in data set [5] (30 mg/kg once daily) is listed as 11.8 mg/L; in data set [12] (uninfected rats, 30 mg/kg i.p. twice daily, day 4, microbiological assay, mean of six animals), 66 mg/L. The “mean trough level in TCF” value in data set [5] (30 mg/kg once daily) is 3.4 mg/L. Further, in data set [11] (uninfected rats, at 1 h, microbiological assay, mean of four animals), the “mean peak plasma level” value worked out at 173 mg/L.
